Source: article PMC2856487 (Journal of natural products, 2009)
In brackets after ≈: the same amount, converted by molar mass. Blank lines part the entries; values can stand above or below the compound they belong to.

Tests used:
[1] = test system: duckweed (Lemna pausicostata); assay: duckweed growth bioassay; format: in vivo; details: 168 h, read-out: I50, growth of duckweed
[2] = cytotoxicity to KB cells; format: cell-based; details: human
[3] = cytotoxicity to SK-OV-3 cells; format: cell-based; details: human
[4] = test system: lettuce (Lactuca sativa cv. L. Iceberg); assay: initial phytotoxicity bioassay, lettuce; format: in vivo; details: for Phytotoxic activity ranking: visual scale 0 to 5, 0 = no effect, 5 = no growth; for growth inhibition (in words): 1 mg/mL (highest concentration)
[5] = test system: bentgrass (Agrostis stolonifera); assay: initial phytotoxicity bioassay, bentgrass; format: in vivo; details: for Phytotoxic activity ranking: visual scale 0 to 5, 0 = no effect, 5 = no growth; for growth inhibition (in words): 1 mg/mL (highest concentration)
[6] = cytotoxicity to BT-549 cells; format: cell-based; details: human
[7] = cytotoxicity to LLC-PK11 cells; format: cell-based; details: pig
[8] = cytotoxicity to Vero cells; format: cell-based; details: African green monkey, Vero cells (kidney fibroblast)
[9] = cytotoxicity to SK-MEL cells; format: cell-based; details: human
[10] = test system: W2 (chloroquin resistant) strain of P. falciparum; assay: in vitro antiplasmodial activity, W2 clone; format: cell-based, Plasmodium falciparum; details: for IC50: Plasmodium falciparum, W2, 72 h, read-out: W2-clone IC50; for antiplasmodial activity (in words): W2 strain
[11] = test system: D6 (chloroquin sensitive) strain of P. falciparum; assay: in vitro antiplasmodial activity, D6 clone; format: cell-based, Plasmodium falciparum; details: for antiplasmodial activity (in words): D6 strain; for IC50: Plasmodium falciparum, D6, 72 h, read-out: D6-clone IC50
[12] = test system: a number of plant species; details: cited from earlier work
[13] = test system: wheat coleoptile; details: cited from earlier work
[14] = BT-549 cells (breast ductal carcinoma)
[15] = LLC-PK11 cells (kidney epithelial)
[16] = KB cells (oral epidermal carcinoma)
[17] = SK-OV-3 cells (ovary carcinoma)

Compound: C[C@]12C=CC[C@]3(C)C(=O)O[C@@H](C13)[C@H]1O[C@]13COC(=O)C=C32 (some centres unmarked) [Compound 2]
IC50 [1]: 390 to 950 nM
IC50 at 48 h [2]: > 10 µg/mL
IC50 at 48 h [3]: > 10 µg/mL
Phytotoxic activity ranking ([4]; 0.001 mg/mL): 0
Phytotoxic activity ranking ([4]; 0.01 mg/mL): 3
Phytotoxic activity ranking ([4]; 0.1 mg/mL): 5
Phytotoxic activity ranking ([4]; 1.0 mg/mL): 5
Phytotoxic activity ranking ([5]; 0.001 mg/mL): 1
Phytotoxic activity ranking ([5]; 0.01 mg/mL): 4
Phytotoxic activity ranking ([5]; 0.1 mg/mL): 5
Phytotoxic activity ranking ([5]; 1.0 mg/mL): 5

IC50 [10]: > 4.76 µg/mL
IC50 [11]: > 4.76 µg/mL
Compound: C=C1C(O)CC2[C@](C)(CCC[C@]2(C)C(=O)O)C1CC(=O)O (some centres unmarked) [Compound 13]
IC50 at 48 h [6, 14]: > 10 µg/mL
IC50 at 48 h [7, 15]: > 10 µg/mL
IC50 at 48 h [2, 16]: > 10 µg/mL
IC50 at 48 h [8]: > 4.76 µg/mL
IC50 at 48 h [3, 17]: > 10 µg/mL
Phytotoxic activity ranking ([4]; 0.001 mg/mL): 0
Phytotoxic activity ranking ([4]; 0.01 mg/mL): 0
Phytotoxic activity ranking ([4]; 0.1 mg/mL): 0
growth inhibition (in words) [4]: inactive
Phytotoxic activity ranking ([4]; 1.0 mg/mL): 1
IC50 at 48 h ([9]; SK-MEL cells (malignant melanoma)): > 10 µg/mL
Phytotoxic activity ranking ([5]; 0.001 mg/mL): 0
Phytotoxic activity ranking ([5]; 0.01 mg/mL): 0
Phytotoxic activity ranking ([5]; 0.1 mg/mL): 0
growth inhibition (in words) [5]: inactive
Phytotoxic activity ranking ([5]; 1.0 mg/mL): 0
antiplasmodial activity (in words) [10]: inactive
antiplasmodial activity (in words) [11]: inactive

Compound: CCN(CC)CCCC(C)Nc1ccnc2cc(Cl)ccc12 (centres unmarked) [chloroquine, reference compound]
IC50 [10]: 0.1 µg/mL (≈ 0.313 µM)

Compound: C[C@@]12CC[C@@H](O)[C@]3(C)C4=CC(=O)OC[C@]45O[C@@H]5[C@@H](OC1=O)C23 (some centres unmarked) [Compound 5]
IC50 at 48 h [6, 14]: > 10 µg/mL
IC50 at 48 h [7, 15]: > 10 µg/mL
IC50 at 48 h [2, 16]: > 10 µg/mL
IC50 at 48 h [3, 17]: > 10 µg/mL
Phytotoxic activity ranking ([4]; 0.001 mg/mL): 1
Phytotoxic activity ranking ([4]; 0.01 mg/mL): 4
Phytotoxic activity ranking ([4]; 0.1 mg/mL): 5
Phytotoxic activity ranking ([4]; 1.0 mg/mL): 5
Phytotoxic activity ranking ([5]; 0.001 mg/mL): 0
Phytotoxic activity ranking ([5]; 0.01 mg/mL): 4
Phytotoxic activity ranking ([5]; 0.1 mg/mL): 5
Phytotoxic activity ranking ([5]; 1.0 mg/mL): 5
antiplasmodial activity (in words) [10]: inactive
antiplasmodial activity (in words) [11]: inactive

Compound: C[C@@]12C=CC[C@]3(C)C(=O)O[C@H](C=C4COC(=O)C=C41)C23 (some centres unmarked) [Compound 7]
IC50 [1]: 390 to 950 nM
Phytotoxic activity ranking ([4]; 0.001 mg/mL): 0
Phytotoxic activity ranking ([4]; 0.01 mg/mL): 1
Phytotoxic activity ranking ([4]; 0.1 mg/mL): 5
Phytotoxic activity ranking ([4]; 1.0 mg/mL): 5
Phytotoxic activity ranking ([5]; 0.001 mg/mL): 0
Phytotoxic activity ranking ([5]; 0.1 mg/mL): 5
Phytotoxic activity ranking ([5]; 1.0 mg/mL): 5
IC50 [11]: 0.17 µg/mL (≈ 0.624 µM)

Compound: C[C@@]12CC[C@@H](O)[C@]3(C)C(=O)O[C@H](C=C4COC(=O)C=C41)C23 (some centres unmarked) [Compound 8]
IC50 at 48 h [6]: > 10 µg/mL
IC50 at 48 h [7]: > 10 µg/mL
IC50 at 48 h [2]: > 10 µg/mL
IC50 at 48 h [3]: > 10 µg/mL
Phytotoxic activity ranking ([4]; 0.001 mg/mL): 0
Phytotoxic activity ranking ([4]; 0.01 mg/mL): 0
Phytotoxic activity ranking ([4]; 0.1 mg/mL): 2
growth inhibition (in words) [4]: total inhibition of growth
Phytotoxic activity ranking ([4]; 1.0 mg/mL): 5
IC50 at 48 h [9]: > 10 µg/mL
Phytotoxic activity ranking ([5]; 0.001 mg/mL): 0
Phytotoxic activity ranking ([5]; 0.01 mg/mL): 0
Phytotoxic activity ranking ([5]; 0.1 mg/mL): 3
growth inhibition (in words) [5]: total inhibition of growth
Phytotoxic activity ranking ([5]; 1.0 mg/mL): 5
antiplasmodial activity (in words) [10]: inactive
antiplasmodial activity (in words) [11]: inactive

Compound: C[C@@]12CC[C@@H](O)[C@]3(C)C4=CC(=O)OCC4=C[C@@H](OC1=O)C23 (some centres unmarked) [Compound 10]
Phytotoxic activity ranking ([4]; 0.001 mg/mL): 0
Phytotoxic activity ranking ([4]; 0.01 mg/mL): 1
Phytotoxic activity ranking ([4]; 0.1 mg/mL): 5
Phytotoxic activity ranking ([4]; 1.0 mg/mL): 5
Phytotoxic activity ranking ([5]; 0.001 mg/mL): 0
Phytotoxic activity ranking ([5]; 0.01 mg/mL): 1
Phytotoxic activity ranking ([5]; 0.1 mg/mL): 5
Phytotoxic activity ranking ([5]; 1.0 mg/mL): 5

Compound: C[C@]12C=C[C@H](O)[C@]3(C)C(=O)O[C@@H](C13)[C@H]1O[C@]13COC(=O)C=C32 (some centres unmarked) [Compound 1]
Phytotoxic activity ranking ([4]; 0.01 mg/mL): 5
Phytotoxic activity ranking ([4]; 0.1 mg/mL): 5
Phytotoxic activity ranking ([4]; 1.0 mg/mL): 5
Phytotoxic activity ranking ([5]; 0.01 mg/mL): 4
Phytotoxic activity ranking ([5]; 0.1 mg/mL): 5
Phytotoxic activity ranking ([5]; 1.0 mg/mL): 5

Compound: C[C@@]12C[C@@H](O)C[C@]3(C)C4=CC(=O)OC[C@]45O[C@@H]5[C@@H](OC1=O)C23 (some centres unmarked) [Compound 4]
Phytotoxic activity ranking ([4]; 0.001 mg/mL): 0
Phytotoxic activity ranking ([4]; 0.01 mg/mL): 3
Phytotoxic activity ranking ([4]; 0.1 mg/mL): 5
Phytotoxic activity ranking ([4]; 1.0 mg/mL): 5
Phytotoxic activity ranking ([5]; 0.001 mg/mL): 0
Phytotoxic activity ranking ([5]; 0.01 mg/mL): 2
Phytotoxic activity ranking ([5]; 0.1 mg/mL): 5
Phytotoxic activity ranking ([5]; 1.0 mg/mL): 5
IC50 [10]: 0.82 µg/mL (≈ 2.68 µM)

Compound: C[C@@]12CCC[C@]3(C)C4=CC(=O)OCC4=C[C@@H](OC1=O)C23 (some centres unmarked) [Compound 11]
IC50 [1]: 390 to 950 nM
Phytotoxic activity ranking ([4]; 0.001 mg/mL): 0
Phytotoxic activity ranking ([4]; 0.01 mg/mL): 2
Phytotoxic activity ranking ([4]; 0.1 mg/mL): 5
Phytotoxic activity ranking ([4]; 1.0 mg/mL): 5
phytotoxicity (in words) [12]: potent phytotoxin
Phytotoxic activity ranking ([5]; 0.001 mg/mL): 0
Phytotoxic activity ranking ([5]; 0.01 mg/mL): 3
Phytotoxic activity ranking ([5]; 0.1 mg/mL): 5
Phytotoxic activity ranking ([5]; 1.0 mg/mL): 5

Compound: C[C@]12CC[C@@H](O)[C@]3(C)C(=O)O[C@@H](C13)[C@H]1O[C@]13COC(=O)C=C32 (some centres unmarked) [Compound 3]
IC50 at 48 h [6]: > 10 µg/mL
IC50 at 48 h [7]: > 10 µg/mL
IC50 at 48 h [2]: > 10 µg/mL
IC50 at 48 h [3]: > 10 µg/mL
Phytotoxic activity ranking ([4]; 0.001 mg/mL): 0
Phytotoxic activity ranking ([4]; 0.01 mg/mL): 0
Phytotoxic activity ranking ([4]; 0.1 mg/mL): 4
growth inhibition (in words) [4]: total inhibition of growth
Phytotoxic activity ranking ([4]; 1.0 mg/mL): 5
IC50 at 48 h [9]: > 10 µg/mL
Phytotoxic activity ranking ([5]; 0.001 mg/mL): 0
Phytotoxic activity ranking ([5]; 0.01 mg/mL): 0
Phytotoxic activity ranking ([5]; 0.1 mg/mL): 4
growth inhibition (in words) [5]: total inhibition of growth
Phytotoxic activity ranking ([5]; 1.0 mg/mL): 5
IC50 [10]: > 4.76 µg/mL
antiplasmodial activity (in words) [10]: inactive
antiplasmodial activity (in words) [11]: inactive
IC50 [11]: > 4.76 µg/mL

IC50 [10]: 0.084 µg/mL (≈ 0.289 µM)
IC50 [11]: 0.097 µg/mL (≈ 0.334 µM)
Compound: C[C@@]12C[C@@H](O)C[C@]3(C)C4=CC(=O)OCC4=C[C@@H](OC1=O)C23 (some centres unmarked) [Compound 9]
Phytotoxic activity ranking ([4]; 0.01 mg/mL): 2
Phytotoxic activity ranking ([4]; 0.1 mg/mL): 5
Phytotoxic activity ranking ([4]; 1.0 mg/mL): 5
Phytotoxic activity ranking ([5]; 0.001 mg/mL): 2
Phytotoxic activity ranking ([5]; 0.01 mg/mL): 3
Phytotoxic activity ranking ([5]; 0.1 mg/mL): 5
Phytotoxic activity ranking ([5]; 1.0 mg/mL): 5
inhibition of wheat coleoptile elongation (in words) [13]: weak inhibitor

IC50 [11]: 0.043 µg/mL (≈ 0.149 µM)
Compound: C[C@@]12C=C[C@H](O)[C@]3(C)C(=O)O[C@H](C=C4COC(=O)C=C41)C23 (some centres unmarked) [Compound 6]
IC50 [1]: 390 to 950 nM
Phytotoxic activity ranking ([4]; 0.001 mg/mL): 0
Phytotoxic activity ranking ([4]; 0.01 mg/mL): 5
Phytotoxic activity ranking ([4]; 0.1 mg/mL): 5
Phytotoxic activity ranking ([4]; 1.0 mg/mL): 5
Phytotoxic activity ranking ([5]; 0.001 mg/mL): 0
Phytotoxic activity ranking ([5]; 0.01 mg/mL): 4
Phytotoxic activity ranking ([5]; 0.1 mg/mL): 5
Phytotoxic activity ranking ([5]; 1.0 mg/mL): 5

Compound: C[C@]12CCC[C@](C)(C(=O)O)[C@@H]1C=C[C@]1(O)COC(=O)C[C@H]21 [Compound 12, oidiolactone-E]
Phytotoxic activity ranking ([4]; 0.001 mg/mL): 0
Phytotoxic activity ranking ([4]; 0.01 mg/mL): 2
Phytotoxic activity ranking ([4]; 0.1 mg/mL): 4
Phytotoxic activity ranking ([4]; 1.0 mg/mL): 5
Phytotoxic activity ranking ([5]; 0.001 mg/mL): 0
Phytotoxic activity ranking ([5]; 0.01 mg/mL): 1
Phytotoxic activity ranking ([5]; 0.1 mg/mL): 4
Phytotoxic activity ranking ([5]; 1.0 mg/mL): 5
